In US20220401514A1, “ANTIMICROBIAL, BACTERIOPHAGE-DERIVED POLYPEPTIDES AND THEIR USE AGAINST GRAM-NEGATIVE AND ACID-FAST BACTERIA” (CONTRAFECT CORPORATION, priority 2019, published 2022):
Where two headings read alike, the source gives them in different places.

Legend:
[1] = tested on: Mycobacterium tuberculosis strains
Protocol: MIC values for various Chp peptides were determined using the CLSI method for broth microdilution in 96-well microtiter format.
Next, MIC values for various Chp peptides were determined using the CLSI method above for broth microdilution in 96-well microtiter format for two different Mycobacterium tuberculosis strains. The MIC was determined as explained above for the NTM strains.

M. intracellulare = test: 45 hr MIC against M. intracellulare (NTM); format: cell-based, Mycobacterium intracellulare; settings: M. intracellulare (Cuttino and McCabe) Runyon ATCC 13950
Klebsiella pneumoniae = format: cell-based; settings: for MIC50 / MIC100 / MIC Range: K. pneumoniae isolates (n per peptide in table); for MIC: Klebsiella pneumoniae HM-44, CAA supplemented with human serum
Protocol: (§1) Determination of Minimal Inhibitory Concentrations (MIC).
(§2) Additional MIC testing was performed for several peptides against the ESKAPE pathogens Escherichia coli, Enterobacter cloacae, Klebsiella pneumoniae, and Acinetobacter baumannii, in CAA supplemented with human serum (Table D).

M. avium = test: 45 hr MIC against M. avium (NTM); format: cell-based, Mycobacterium avium; settings: M. avium Chester ATCC 700898
[2] = tested on: carbapenem-resistant P. aeruginosa clinical isolate CFS-1292; test: MIC by modified CLSI broth microdilution against P. aeruginosa CFS-1292 (CAA, CAA + human serum); format: cell-based, Pseudomonas aeruginosa; settings: for MIC (μg/mL) against CFS-1292 in 100% CAA (1st run/2nd run): 1st run or single value
Acinetobacter baumannii = test: microbe, parasite or virus in culture; format: cell-based; settings: for MIC50 / MIC100 / MIC Range: A. baumannii isolates (n per peptide in table); for MIC: Acinetobacter baumannii ATCC BAA 747, CAA supplemented with human serum
M. smegmatis = test: 45 hr MIC against M. smegmatis (NTM), Mueller Hinton broth; format: cell-based, Mycobacterium smegmatis
Pseudomonas aeruginosa = test: microbe, parasite or virus in culture; format: cell-based; settings: P. aeruginosa isolates (n per peptide in table)
[3] = tested on: carbapenem-resistant bacterial strains; test: organism not typed; format: cell-based
Text: as §1

[4] = tested on: M. kansasii Hauduroy ATCC 12478; test: 45 hr MIC against M. kansasii (NTM), Mueller Hinton broth; format: cell-based, Mycobacterium kansasii
S. maltophilia = test: MIC against S. maltophilia isolates; format: cell-based, Stenotrophomonas maltophilia; settings: S. maltophilia isolates (n per peptide in table)
Protocol: as §1
In addition to the results discussed above in Example 3, further testing was conducted on several Chp peptides. MIC values were determined against different species, including P. aeruginosa, K. pneumoniae, A. baumannii, E. cloacae, E. coli, and S. maltophilia, and the results are presented below in Tables 40-45, wherein n=number of isolates tested for each species and MIC is measured as μg/mL.

M. fortuitum = test: 45 hr MIC against M. fortuitum (NTM); format: cell-based, Mycobacterium fortuitum; settings: M. fortuitum subsp. Fortuitum da Costa Cruz. ATCC 6841
[5] = Stability assessment in 100% CAA; format: in vitro ADME; set-up: unit not given beside the values
Protocol: Stability was assessed after incubation in 100% human serum at 37° C. after 10 minutes, 1 hour, and 2 hours.
Stability assessment was further conducted in 100% CAA and rabbit serum using the same methodology discussed above.

M. scrofulaceum = test: 45 hr MIC against M. scrofulaceum (NTM); format: cell-based, Mycobacterium scrofulaceum; settings: M. scrofulaceum Prissick and Masson ATCC 19981
Enterobacter cloacae = test: microbe, parasite or virus in culture; format: cell-based; settings: for MIC: Enterobacter cloacae ATCC 13047, CAA supplemented with human serum
Protocol: as §1, §2

Escherichia coli = test: microbe, parasite or virus in culture; format: cell-based; settings: for MIC: Escherichia coli ATCC 25922, CAA supplemented with human serum
Protocol: as §1, §2

[6] = Mycobacterium tuberculosis (Zopf) Lehmann and Neumann ATCC 25177
[7] = Mycobacterium tuberculosis (Zopf) Lehmann and Neumann ATCC 35817
[8] = carbapenem-resistant isolate PA19
[9] = carbapenem-resistant isolate PA20
[10] = carbapenem-resistant isolate PA21
[11] = carbapenem-resistant isolate PA22
[12] = carbapenem-resistant isolate PA23
[13] = carbapenem-resistant isolate PA24
[14] = carbapenem-resistant isolate WLC-452
[15] = E. cloacae isolates (n per peptide in table)
[16] = E. coli isolates (n per peptide in table)

Row | Sequence | MIC [1, 6] [µg/mL] | MIC [1, 7] [µg/mL] | 45 hr MIC (M. intracellulare) [µg/mL] | MIC50 (Klebsiella pneumoniae) [µg/mL] | MIC100 (Klebsiella pneumoniae) [µg/mL] | MIC Range (Klebsiella pneumoniae) [µg/mL] | 45 hr MIC (M. avium) [µg/mL] | MIC (μg/mL) against CFS-1292 in 100% CAA (1st run/2nd run) [2] [µg/mL] | MIC (μg/mL) against CFS-1292 in CAA + […] human serum [2] [µg/mL] | MIC50 (Acinetobacter baumannii) [µg/mL] | MIC100 (Acinetobacter baumannii) [µg/mL] | MIC Range (Acinetobacter baumannii) [µg/mL] | 45 hr MIC (M. smegmatis; M. smegmatis MC^2 155, Run #1) [µg/mL] | 45 hr MIC (M. smegmatis; M. smegmatis MC^2 155, Run #2) [µg/mL] | MIC50 (Pseudomonas aeruginosa) [µg/mL] | MIC100 (Pseudomonas aeruginosa) [µg/mL] | MIC [3, 8] [µg/mL] | MIC [3, 9] [µg/mL] | MIC [3, 10] [µg/mL] | MIC [3, 11] [µg/mL] | further results
1 | MAYRGFKTSRVVKHRVRRRWFNHRRRYR [Spi1] | 32 | 16 | 4 | 2 | 4 | 2 to 4 | >64 | 2 | 0.25 | 1 | 1 | 1 | 2 | 16 | 4 | 8 | 2 | 4 | 8 | 4 | MIC Range (Pseudomonas aeruginosa): 2 to 8 µg/mL; MIC [3, 12]: 8 µg/mL; MIC [3, 13]: 4 µg/mL; MIC [3, 14]: 2 µg/mL; 45 hr MIC [4]: 0.5 µg/mL; MIC50 (S. maltophilia): 2 µg/mL; MIC100 (S. maltophilia): 2 µg/mL; 45 hr MIC (M. fortuitum): 8 µg/mL; MIC (100% CAA) [5]: 1; 45 hr MIC (M. scrofulaceum): 2 µg/mL
2 | MRRKVKNTKRHQWRLTHSARSIKRANIMPSNPRGGRRF [Spi2] | 8 | 8 | >64 | >8 | >8 | >8 | >64 | 16 | 0.25 | 2 | 2 | 2 to 8 | 4 | 4 | >8 | >8 | >8 | >8 | >8 | >8 | MIC (Klebsiella pneumoniae): 16 µg/mL; MIC (Acinetobacter baumannii): 16 µg/mL; MIC Range (Pseudomonas aeruginosa): >8 µg/mL; MIC [3, 12]: >8 µg/mL; MIC [3, 13]: >8 µg/mL; MIC [3, 14]: >8 µg/mL; 45 hr MIC [4]: 1 µg/mL; MIC50 (S. maltophilia): >8 µg/mL; MIC100 (S. maltophilia): >8 µg/mL; MIC Range (S. maltophilia): >8 µg/mL; 45 hr MIC (M. fortuitum): 4 µg/mL; MIC (100% CAA) [5]: 4; 45 hr MIC (M. scrofulaceum): 8 µg/mL; MIC50 (Enterobacter cloacae; [15]): >8 µg/mL; MIC100 (Enterobacter cloacae; [15]): >8 µg/mL; MIC (Enterobacter cloacae): 4 µg/mL; MIC50 (Escherichia coli; [16]): 4 µg/mL; MIC100 (Escherichia coli; [16]): >8 µg/mL; MIC (Escherichia coli): 0.25 µg/mL
3 | MRRPRKMNYKKSKRMFSRTAARTHRKNSLRGSRPMRGGIRL [Gkh1] | 32 | 4 | 4 | 4 | 8 | 1 to 8 | 4 | 1 | 1 | 0.5 | 1 | 0.25 to 2 | 4 | 4 | 8 | >8 | 2 | >8 | >8 | >8 | MIC (Klebsiella pneumoniae): 0.5 µg/mL; MIC (Acinetobacter baumannii): 2 µg/mL; MIC [3, 12]: >8 µg/mL; MIC [3, 13]: 8 µg/mL; MIC [3, 14]: 2 µg/mL; 45 hr MIC [4]: 2 µg/mL; MIC50 (S. maltophilia): >8 µg/mL; MIC100 (S. maltophilia): >8 µg/mL; 45 hr MIC (M. fortuitum): 1 µg/mL; MIC (100% CAA) [5]: 0.5; 45 hr MIC (M. scrofulaceum): 8 µg/mL; MIC50 (Enterobacter cloacae; [15]): 1 µg/mL; MIC100 (Enterobacter cloacae; [15]): 2 µg/mL; MIC Range (Enterobacter cloacae; [15]): 0.5 to 8 µg/mL; MIC (Enterobacter cloacae): 32 µg/mL; MIC50 (Escherichia coli; [16]): 2 µg/mL; MIC100 (Escherichia coli; [16]): 2 µg/mL; MIC Range (Escherichia coli; [16]): 0.5 to 8 µg/mL; MIC (Escherichia coli): 1 µg/mL
